From US20250034216A1, “STEREOSELECTIVE COVALENT LIGANDS FOR ONCOGENIC AND IMMUNOLOGICAL PROTEINS” (The Scripps Research Institute, priority 2021, published 2025)

What was measured:
Assay in all cases: IA-DTB cysteine engagement
Format in all cases: binding
[1] = molecular target: T1, ANKRD46_C61 (Homo sapiens, UniProt Q86W74); details: 22Rv1 cells, 20 μM probe, 1 h, relative to DMSO
T1 construct: endogenous in cells; host or cells: 22Rv1
T1 sequence (Q86W74 1-228): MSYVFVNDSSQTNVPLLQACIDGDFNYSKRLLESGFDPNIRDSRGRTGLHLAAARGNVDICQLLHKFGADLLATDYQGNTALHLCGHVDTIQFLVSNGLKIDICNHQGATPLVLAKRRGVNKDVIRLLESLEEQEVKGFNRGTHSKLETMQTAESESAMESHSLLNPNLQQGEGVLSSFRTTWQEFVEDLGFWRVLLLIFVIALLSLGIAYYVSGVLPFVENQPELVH
Method: (§1) Sample preparation: Cells (adherent: 15 cm dishes, suspension: 2 million cells/mL) were treated with electrophilic probes in situ for indicated times and concentrations, washed with ice-cold PBS, and flash frozen in liquid nitrogen. Cell pellets were lysed by sonication (8 pulses, 40% power) in 500 μL ice-cold PBS supplemented with cOmplete protease inhibitors (1 tablet/10 mL of PBS). Whole cell lysates protein content was measured using a standard DC protein assay (Bio-Rad) and 500 μL (2 mg/mL protein content) were treated with 5 μL of 10 mM 1A-DTB (in DMSO) for 1 h at ambient temperature with occasional vortexing. Samples were methanol-chloroform precipitated with the addition of 500 μL ice-cold MeOH and 200 μL CHCl3, vortexed, and centrifuged (10 min, 10,000 g). Without disrupting the protein disk, both top and bottom layers were aspirated and the protein disk was washed with 1 mL ice-cold MeOH and centrifuged (10 min, 10,000 g). The pellets were allowed to air dry, and then re-suspended in 90 μL buffer (9 M urea, 10 mM DTT, 50 mM TEAB pH 8.5). Samples were reduced by heating at 65 C for 20 minutes and water bath sonicated as needed to resuspend the protein pellets, followed by alkylation via addition of 10 μL (500 mM) iodoacetamide and incubated at 37 C for 30 min with shaking. Samples were briefly centrifuged, and probe sonicated once more to ensure complete resuspension, and then diluted with 300 μL buffer (50 mM TEAB pH 8.5) to reach final concentration of 2 M urea. Trypsin (4 μL of 0.25 μg/μL in trypsin resuspension buffer with 25 mM CaCl2)) was added to each sample and digested at 37 C for 2 h to overnight. Digested samples were then diluted with 300 μL wash buffer (50 mM TEAB pH 8.5, 150 mM NaCl, 0.2% NP-40) containing streptavidin-agarose beads (50 μL of 50% slurry in wash buffer) and were rotated at room temperature for 2 hours. Enriched samples were pelleted by centrifugation (2000 g, 2 min) and transferred to BioSpin columns and washed (3×1 mL wash buffer, 3×1 mL PBS, 3×1 mL water). Enriched peptides were eluted by 300 μL 50% acetonitrile with 0.1% formic acid and eluate was evaporated to dryness via speedvac. IA-DTB labeled and enriched peptides were resuspended in 100 μL EPPS buffer (200 mM, pH 8.0) with 30% acetonitrile, vortexed, and water bath sonicated. Samples were TMT labeled with 3 μL of corresponding TMT tag (5 mg tag resuspended in 256 μL acetonitrile), vortexed, and incubated at room temperature for 1 hour. TMT labeling was quenched with the addition of hydroxylamine (5 μL 5% solution in H2O) and incubated for 15 minutes at room temperature. Samples were then acidified with 5 μL formic acid, combined and dried using a SpeedVac. Samples were desalted via Sep-Pak and then high pH fractionated.
(§2) Data processing: Cysteine engagement ratios (probe vs DMSO) were calculated for each peptide-spectra match by dividing each TMT reporter ion intensity by the average intensity for the channels corresponding to DMSO treatment. Peptide-spectra matches were then grouped based on protein ID and residue number (e.g., PSME1 C22), excluding peptides with summed reporter ion intensities for the DMSO channels <10,000, coefficient of variation for DMSO channels >0.5, and non-tryptic peptide sequences. TMT reporter ion intensities were normalized to the median summed signal intensity across channels.
(§3) Filtering of cysteine data: Replicates were combined based on cell line and treatment condition (probe, concentration, duration) by averaging cysteine engagement ratios across all experiments.

[2] = molecular target: T2, YES1_C287 (Homo sapiens, UniProt P07947); details: 22Rv1 cells, relative to DMSO; for % engagement YES1_C287: 20 μM probe, 1 h; for % engagement YES1_287: 5 μM probe, 1 h (FIG. 5B)
T2 construct: endogenous in cells; host or cells: 22Rv1
T2 sequence (P07947 whole entry): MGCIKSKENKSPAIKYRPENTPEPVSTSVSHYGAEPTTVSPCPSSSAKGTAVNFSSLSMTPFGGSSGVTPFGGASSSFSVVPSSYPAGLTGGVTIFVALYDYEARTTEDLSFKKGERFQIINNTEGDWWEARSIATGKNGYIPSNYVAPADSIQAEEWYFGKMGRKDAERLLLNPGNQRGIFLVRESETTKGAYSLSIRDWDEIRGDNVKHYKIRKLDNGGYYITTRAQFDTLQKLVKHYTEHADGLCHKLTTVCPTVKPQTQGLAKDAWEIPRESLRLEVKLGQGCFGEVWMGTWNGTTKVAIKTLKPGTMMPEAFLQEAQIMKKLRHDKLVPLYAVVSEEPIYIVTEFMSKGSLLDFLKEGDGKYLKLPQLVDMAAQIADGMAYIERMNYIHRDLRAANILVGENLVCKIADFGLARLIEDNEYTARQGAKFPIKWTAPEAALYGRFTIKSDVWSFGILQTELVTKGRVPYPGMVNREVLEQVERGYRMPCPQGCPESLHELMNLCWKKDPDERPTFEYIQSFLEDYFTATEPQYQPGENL
Method: as §1, §2, §3

[3] = molecular target: T3, GNPAT_C54 (Homo sapiens, UniProt O15228); details: 22Rv1 cells, relative to DMSO; for % engagement GNPAT_C54: 20 μM probe, 1 h; for % engagement GNPAT_54: 5 μM probe, 1 h (FIG. 5B)
T3 construct: endogenous in cells; host or cells: 22Rv1
T3 sequence (O15228 1-680): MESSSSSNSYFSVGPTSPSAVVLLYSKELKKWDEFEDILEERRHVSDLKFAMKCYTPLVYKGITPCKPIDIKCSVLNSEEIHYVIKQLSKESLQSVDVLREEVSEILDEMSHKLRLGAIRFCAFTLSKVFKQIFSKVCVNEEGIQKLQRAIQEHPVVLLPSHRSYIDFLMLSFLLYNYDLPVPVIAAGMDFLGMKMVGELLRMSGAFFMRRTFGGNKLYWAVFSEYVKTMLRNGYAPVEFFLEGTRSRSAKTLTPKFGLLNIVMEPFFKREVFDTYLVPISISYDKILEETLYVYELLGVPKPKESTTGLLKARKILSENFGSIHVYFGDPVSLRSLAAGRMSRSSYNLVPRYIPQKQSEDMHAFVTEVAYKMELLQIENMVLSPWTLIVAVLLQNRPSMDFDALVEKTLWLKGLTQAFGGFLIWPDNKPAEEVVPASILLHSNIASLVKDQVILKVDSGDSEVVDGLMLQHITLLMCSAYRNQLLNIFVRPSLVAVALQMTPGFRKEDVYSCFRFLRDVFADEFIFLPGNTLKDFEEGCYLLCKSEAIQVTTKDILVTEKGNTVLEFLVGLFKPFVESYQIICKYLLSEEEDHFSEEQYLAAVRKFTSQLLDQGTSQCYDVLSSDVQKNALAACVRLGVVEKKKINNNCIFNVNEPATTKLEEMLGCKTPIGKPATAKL
Method: as §1, §2, §3

% engagement ANKRD46_C61 [1]	% engagement YES1_C287 [2]	% engagement GNPAT_C54 [3]	% engagement YES1_287 [2]	% engagement GNPAT_54 [3]	Structure (SMILES)
66.5%	42.25%	77.5%			C=CC(=O)N1C[C@H](c2ccc(Br)cc2)[C@H]1C(=O)Nc1cccc2cccnc12 [MY-3B, (2S,3S)-1-acryloyl-3-(4-bromophenyl)-N-(quinolin-8-yl)azetidine-2-carboxamide]
5.5%	0.5%	54.25%			C=CC(=O)N1C[C@H](c2ccc(Br)cc2)[C@H]1C(=O)Nc1cccc2cccnc12 [MY-3A, (2S,3S)-1-acryloyl-3-(4-bromophenyl)-N-(quinolin-8-yl)azetidine-2-carboxamide]
17.5%	5.75%	88.5%			C=CC(=O)N1C[C@@H](c2ccc(Br)cc2)[C@H]1C(=O)Nc1cccc2cccnc12 [MY-1A, (2S,3R)-1-acryloyl-3-(4-bromophenyl)-N-(quinolin-8-yl)azetidine-2-carboxamide]

Second part, the compound before the results:

Structure (SMILES)	% engagement ANKRD46_C61 [1]	% engagement YES1_C287 [2]	% engagement GNPAT_C54 [3]	% engagement YES1_287 [2]	% engagement GNPAT_54 [3]
C=CC(=O)N1C[C@H](c2ccc(Br)cc2)[C@@H]1C(=O)Nc1cccc2cccnc12 [MY-1B, (2R,3S)-1-acryloyl-3-(4-bromophenyl)-N-(quinolin-8-yl)azetidine-2-carboxamide]	28.5%	94.5%	91.5%	67.13%	73.17%
CC#CC(=O)N1C[C@H](c2ccc(Br)cc2)[C@@H]1C(=O)Nc1cccc2cccnc12 [MY-45B, (2R,3S)-3-(4-bromophenyl)-1-(but-2-ynoyl)-N-(quinolin-8-yl)azetidine-2-carboxamide]				5.50%	51.83%
